According to article PMC11304238, “Formulate Adaptive Biphasic Scaffold via Sequential Protein‐Instructed Peptide Co‐Assembly” (Advanced Science, 2024):
Where a SMILES comes first, the peptide text is derived from it. [ ]: non-standard residue; d: D form. The star is where a group is joined. Acetyl(2-naphthyl) = O=C(Cc1ccc2ccccc2c1)*; pY = N[C@@H](Cc1ccc(OP(=O)(O)O)cc1)C(=O)O

Key:
[1] = test system: hMSCs; assay: hMSC biocompatibility (viability, caspase 3/7, Ki67); type: cell-based, human; conditions: 3-day treatment at various concentrations (25 to 500 µM), basal medium, WST-1 viability, caspase 3/7 and Ki67 at 200 µM, n = 3
Protocol: (§1) Cells were seeded onto a 96‐well flat‐bottom tissue culture plate (Corning, Falcon) at a density of 0.5 × 10^4 cells cm^−2 and incubated overnight to facilitate cell adhesion. The medium was then replaced with osteogenic medium containing various peptide compounds at concentrations ranging from 25 to 500 µM. As a control, cells were cultured in osteogenic medium supplemented with an equal volume of PBS. Subsequently, the cells were cultured for an additional 72 h, after which their viability was assessed using a WST‐1 assay kit (Roche Diagnostics, IN).
Figure S12. Chemical structure of peptide P6.
Figure S13. Chemical structure of peptide P7.
Figure S14. 3-day hMSCs viability upon the treatment of peptides P1, P2, P3, and control peptides P5, 1:1 mixture of P6/P7 at various concentrations in basal medium (mean ± SD, n = 3).
Figure S15. Bright field images and fluorescence images of hMSCs upon the treatment of peptides P1, P2, P3, and control peptides P5, 1:1 mixture of P6/P7 at 200 µM in basal medium for 3 days and stained with caspase 3/7 (green). […]
Figure S16. (a) Fluorescence images of hMSCs upon the treatment of peptides P1, P2, P3, and control peptides P5, 1:1 mixture of P6/P7 at 200 µM in basal medium for 3 days and co-stained with hochest (blue) and Ki67 (red). […] (b) Quantification of Ki67 positive ratio in hMSCs upon the treatments of panel a (mean ± SD, n = 3). […]

[2] = test system: hMSCs; type: cell-based, human; conditions: hMSCs pre-cultured 3 days with P3, P5 or P6/P7 (200 µM), then 3 days P4 at various concentrations, osteogenic medium, n = 3
Protocol: as §1
Figure S22. […]
(§2) Figure S23. Bright field images and fluorescence images of hMSCs upon the treatment of peptides P3, P5, and mixture of P6/P7 at a concentration of 200 µM for 3 days, followed with another 3-day treatment of P4 at a concentration of 200 µM in osteogenic medium. ‘Undifferentiated’ represents cell cultured in basal medium; ‘Ctrl’ represents cell cultured in osteogenic medium upon the treatment of 1xPBS buffer. […]
as §2, with “S24. (a) Fluorescence” for “S23. Bright field images and fluorescence”

In the case of `CC[C@H](C)[C@H](NC(=O)[C@H](CC(C)C)NC(=O)[C@H](CC(C)C)NC(=O)[C@H](CCCCN)NC(=O)[C@@H](NC(=O)[C@H](Cc1ccccc1)NC(=O)[C@H](Cc1ccccc1)NC(=O)[C@H](Cc1ccccc1)NC(=O)[C@H](CCCNC(=N)N)NC(=O)[C@H](CO)NC(=O)[C@H](CCCNC(=N)N)NC(=O)[C@@H](N)CCCCN)[C@@H](C)CC)C(=O)O` [P3, KRSRFFFIKLLI] (H-KRSRFFFIKLLI-OH), the “biocompatibility with hMSCs” value [1] is reported as “good biocompatibility”.
With `O=C(O)CC[C@H](NC(=O)[C@H](Cc1ccc(OP(=O)(O)O)cc1)NC(=O)[C@H](Cc1ccccc1)NC(=O)[C@H](Cc1ccccc1)NC(=O)Cc1ccc2ccccc2c1)C(=O)O` [P4, NapFFYpE] ({Acetyl(2-naphthyl)}-FF[pY]E-OH) the “cytotoxicity of P4 on pre-cultured hMSCs” value [2] was “no cytotoxicity”.
In the case of `O=C(Cc1ccc2ccccc2c1)N[C@@H](Cc1ccccc1)C(=O)N[C@@H](Cc1ccccc1)C(=O)O` [P5, NapFF], the “biocompatibility with hMSCs” value [1] is reported as “good biocompatibility”.
